Measurements as given in publication PMC8419995, “In vitro and in vivo efficacy of thiacloprid against Echinococcus multilocularis” (Parasites & Vectors, 2021).
Read-outs that look alike come from different tables or passages of the source.

What was measured:
[1] = set-up: method as in PMID 21786385; details: cited from earlier work
[2] = tested on: E. multilocularis metacestodes; assay: Morphology of in vitro treated metacestode vesicles (light microscope, SEM, TEM); format: cell-based, Echinococcus multilocularis; details: 5 μM, 5 days
Method: The variations in the microstructure of the protoscoleces or metacestodes were observed under an electron microscope. In vitro-cultured E. multilocularis protoscoleces and metacestodes were treated with thiacloprid at 0 and 5 μM for 5 days at 37 °C and 5% CO2. They were washed twice in PBS and then fixed for 3 h with 2.5% glutaraldehyde (pH = 7.2); next, they underwent 2 h post-fixation in 2% OsO4 (SPI-CHEM, West Chester, PA, USA). Subsequently, the samples were washed in double-distilled water and treated with 1% uranyl acetate for 25 min. After the samples were washed again in double-distilled water, dehydration was conducted in ethanol at continuous gradients (30–50–70–80–90–95–100%) over a period of 10 min. For SEM analysis, the dehydrated samples were dipped into hexamethyldisiloxane and then air-dried in a fume hood. The sample was observed under a Hitachi SU8100 scanning electron microscope (Tokyo, Japan) after gold spraying. For TEM analysis, the dehydrated samples passed through a dehydrating agent, and an epoxy resin (SPI-CHEM) permeated and polymerized at 60 °C overnight. A 50-nm ultra-thin section was prepared and then loaded on a 300-mesh copper grid. It was stained with uranyl acetate and lead citrate (SPI-CHEM). The sample was observed under a Hitachi HT7700 transmission electron microscope. […]

[3] = tested on: E. multilocularis metacestodes; assay: In vivo treatment of mice experimentally infected with E. multilocularis metacestodes; set-up: species or system Echinococcus multilocularis; details: for Wet weight of the metacestodes: infected BALB/c mice, untreated 6.49 ± 1.18 g
Method: (§1) In vitro-grown metacestode vesicles were pressed through a 500 µm mesh and washed three times with sterile PBS. The parasite tissue was then taken up in an equal volume of sterile PBS. Each mouse was intraperitoneally injected with 200 μl suspension. Seven mice were injected with 200 μl PBS as the control group. Twenty-eight infected mice were randomly distributed into four groups (7 mice/group): the untreated group was not administered any drug; the ABZ group was treated with ABZ orally (100 mg/kg/day); and the Thia15 group and Thia30 group received thiacloprid orally (15 mg/kg/day and 30 mg/kg/day). Treatments of mice started 2 weeks post-infection, and treatments were administered daily for 6 weeks. After 6 weeks of treatment, whole blood via the orbital sinus was collected from mice and the animals were euthanized by CO2. Blood samples were incubated at 37 °C for 1 h and centrifuged at 3500 rpm for 10 min at 4 °C. The serum was harvested and stored at –20 °C for IL-2, IL-4, IL-10 and IgE detection. All metacestode tissues were collected, and the total wet weight of metacestodes per mice was determined. Furthermore, the content of cytokines in microcyst fluid was detected by enzyme-linked immunosorbent assay (ELISA). Several metacestode tissue specimens were processed for transmission electron microscopy (TEM) and histopathological experiments.
Tissues from experimental animals were washed in PBS and fixed in 4% paraformaldehyde at room temperature for […]. On the next day, they were dehydrated, embedded, and sliced into 5-μm sections. After dewaxing and dehydrating, sections were stained with hematoxylin for 2–5 min, and re-stained with eosin for 15 s. They were sealed with neutral gum and observed under a BX51 microscope (Olympus, Tokyo, Japan).
A Periodic Acid Schiff Stain Kit (Solarbio, Beijing, China) was used to show the PAS-positive laminated layer characteristic of E. multilocularis metacestodes. The section (5 μm) was dewaxed in xylene and rehydrated in 100%, 95%, 80%, and 75% alcohol baths. Staining was then carried out according to the kit instructions.

[4] = tested on: Reuber rat hepatoma (RH) cells; assay: alamarBlue cytotoxicity assay, RH cells; format: cell-based; details: 120 h, 5 days
Method: An alamarBlue assay was used to assess the toxicity of thiacloprid to confluent and pre-confluent mammalian cells in vitro [29]. Human foreskin fibroblasts (HFF, Procell) and rat hepatoma cells (RH, Procell) were seeded into 96-well cell culture plates in DMEM supplemented with 10% FBS and 1% penicillin–streptomycin at 37 °C and 5% CO2. For detecting the growth inhibitory effects of confluent cells, HFF and RH cells were seeded at 10,000 cells per well and 50,000 cells per well, respectively. After overnight culture, thiacloprid or PZQ was added and diluted in serial concentrations (0, 0.6, 1.2, 2.5, 5, 10, 20, 40, 80 and 160 μM). For detecting growth inhibitory effects on proliferating cells, cells were seeded at 1000 (HFF) and 5000 (RH) cells per well. Thiacloprid was added after 5 h of cell attachment. To measure the viability of the cells after treatment for 5 days, the alamarBlue assay was employed and viability calculated as described previously.

[5] = tested on: T lymphocyte subsets in metacestodes and spleen; assay: T lymphocyte subset analysis and spleen index in infected mice; format: in vivo; details: infected BALB/c mice; 6 weeks oral treatment; flow cytometry
Method: as §1, with “After 6 weeks of treatment, whole blood via the orbital sinus was collected from mice and the animals were euthanized by CO2. Blood samples were incubated at 37 °C for 1 h and centrifuged at 3500 rpm for 10 min at 4 °C. The serum was harvested and stored at –20 °C for IL-2, IL-4, IL-10 and IgE detection.” left out, “Several metacestode tissue specimens were processed for transmission electron microscopy (TEM) and histopathological experiments.” left out
The spleens of mice were removed and then weighed to calculate the spleen index. […] The lymphocytes were incubated with FITC-conjugated anti-CD3 (BioLegend, San Diego, CA, USA), PE-conjugated anti-CD4 (BioLegend), and APC-conjugated anti-CD8 (BioLegend) antibodies, and then analyzed by flow cytometry using a NovoCyte flow cytometer (ACEA/Agilent, Santa Clara, CA, USA).

## N#C/N=C1\SCCN1Cc1ccc(Cl)nc1 [thiacloprid]
[1]
  Dose that can cause hepatocellular necrosis and hydropic degeneration: 22.5 mg/kg
[2]
  Morphological alterations of metacestode vesicles under a light microscope: contraction and collapse
  TEM of metacestode vesicles: obvious ultrastructural damage
[3]; 6 weeks oral treatment
  PAS staining of laminated layer of metacestodes from treated mice: only a few laminated layers were observed
[3]; 6 weeks oral treatment, thiacloprid 15 or 30 mg/kg/day, ABZ 100 mg/kg/day
  HE staining of metacestodes from treated mice: Considerable vacuoles
[3]; thiacloprid 15 mg/kg/day orally, 6 weeks (Thia15 group)
  Wet weight of the metacestodes: 1.63 ± 0.62 g
[3]; thiacloprid 30 mg/kg/day orally, 6 weeks (Thia30 group)
  Wet weight of the metacestodes: 1.63 ± 0.61 g
[4]; confluent cells, read-out: IC50 on confluent RH cells
  IC50: 91.4 ± 1.33 µM
[4]; pre-confluent cells, read-out: IC50 on pre-confluent RH cells
  IC50: 74.3 ± 10.8 µM
[5]
  CD4+ T lymphocytes in the metacestodes and spleen compared with the untreated group: increased
  CD8+ T lymphocytes in the metacestodes and spleen compared with the untreated group: decreased
